Results on 2 compounds are retold here after paper PMC9795070, “Customized chitooligosaccharide production—controlling their length via engineering of rhizobial chitin synthases and the choice of expression system” (Frontiers in Bioengineering and Biotechnology, 2022).

This assay addresses T1, NodC_GRH2 (Rhizobium sp. GRH2, UniProt A0A0N7ARR3).
T1 construct: gene nodC; wild-type nodC in shuttle vector pEKEx3, expressed in E. coli BL21 (DE3) and C. glutamicum DSM20300; not purified, membrane-embedded
T1 sequence (A0A0N7ARR3 1-443): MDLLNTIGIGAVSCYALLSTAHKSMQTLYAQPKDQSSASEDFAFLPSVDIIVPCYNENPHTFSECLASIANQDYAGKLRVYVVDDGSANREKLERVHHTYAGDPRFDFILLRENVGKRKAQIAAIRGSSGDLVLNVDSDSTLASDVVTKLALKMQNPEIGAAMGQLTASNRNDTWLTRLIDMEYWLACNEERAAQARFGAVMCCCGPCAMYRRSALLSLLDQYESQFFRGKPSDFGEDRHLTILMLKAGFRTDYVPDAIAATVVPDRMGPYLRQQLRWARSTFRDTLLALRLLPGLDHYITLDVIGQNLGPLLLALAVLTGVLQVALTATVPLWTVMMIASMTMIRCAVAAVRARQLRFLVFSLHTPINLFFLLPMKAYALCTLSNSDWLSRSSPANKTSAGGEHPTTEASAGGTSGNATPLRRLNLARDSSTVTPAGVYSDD
The assay can be described thus: whole-cell production, HILIC-ESI-MS of lysed culture. The assay is classed as cell-based. Conditions: 0.1 mM IPTG, donor UDP-GlcNAc from the host.

Structures are written as SMILES.

Take `CC(=O)N[C@H]1[C@H](O[C@H]2[C@H](O)[C@@H](NC(C)=O)[C@H](O[C@H]3[C@H](O)[C@@H](NC(C)=O)C(O)O[C@@H]3CO)O[C@@H]2CO)O[C@H](CO)[C@@H](O[C@@H]2O[C@H](CO)[C@@H](O[C@@H]3O[C@H](CO)[C@@H](O)[C@H](O)[C@H]3NC(C)=O)[C@H](O)[C@H]2NC(C)=O)[C@@H]1O` (some centres unmarked) [A5, pentamer]: the “whole-cell production, HILIC-ESI-MS of lysed culture” value (E. coli BL21 (DE3), 30 °C) is listed as “the main product for wildtype NodC_GRH2 throughout the whole cultivation is A5”.

Consider `CC(=O)N[C@H]1[C@H](O[C@H]2[C@H](O)[C@@H](NC(C)=O)[C@H](O[C@H]3[C@H](O)[C@@H](NC(C)=O)C(O)O[C@@H]3CO)O[C@@H]2CO)O[C@H](CO)[C@@H](O[C@@H]2O[C@H](CO)[C@@H](O[C@@H]3O[C@H](CO)[C@@H](O[C@@H]4O[C@H](CO)[C@@H](O)[C@H](O)[C@H]4NC(C)=O)[C@H](O)[C@H]3NC(C)=O)[C@H](O)[C@H]2NC(C)=O)[C@@H]1O` (some centres unmarked) [A6, hexamer], for which, for the setting “C. glutamicum DSM20300, 30 °C”, the “whole-cell production, HILIC-ESI-MS of lysed culture” value was “C. glutamicum expressing the same wildtype enzyme produces predominantly A6”.
